Source: patent US7932264B2, “Sinomenine derivatives and preparation and uses thereof” (priority 2005, dated 2011)

Experiments:
Format in all cases: cell-based
[1] = test system: LPS-induced IL-6 production; experiment: Inhibition of LPS-induced IL-6 production in human whole blood culture; conditions: LPS 10 ng/ml, 6 h; for IC50: human whole blood culture, IC50 by program calcdemo, read-out: IC50 to inhibit LPS-induced IL-6 production
Description: (§1) Human blood sample (−20 ml) was taken from a peripheral venous (10 ml) of a healthy volunteer (20-50 years old, nonsmoker) using sterile endotoxin-free ethylenediaminetetraacetic (EDTA) tube and was immediately processed. The blood samples were divided into three different experimental conditions (groups): control, stimulating with LPS alone and LPS plus testing compound. Each group contained five blood samples from different individuals. In control group, 100 μl of whole blood sample were diluted with 900 μL of RPMI 1640 in 24 wells plate. In LPS only group or LPS plus testing compound group, 100 ul of whole blood were diluted with 1 μl testing compound or DMSO and 889 ul of RPMI 1640 (RPMI 1640 was consisted of 25 mM Hepes supplemented with 100 U/mL penicillin, 100 μg/mL streptomycin, 4 mM 1-glutamine, and 10% fetal calf serum) All samples from the three groups were incubated in 37° C. and 5% CO2 for 15 minutes, then 10 μl LPS (1 μg/ml) was added into these samples except samples of control group, and was kept in 37° C. and 5% CO2 for 6 h. The samples were placed on ice for 3 minutes and centrifuged for 10 min at 4° C. and 1500 g. The supernatants of the whole blood culture were taken and kept at −80° C. for analysis of TNF-α, IL-1, IL-6 and IL-8.
(§2) Since compounds #54 and #44 we obtained were mixed chemical isomers, these two compounds have been excluded from the IC50 experiments. […] concentrations of the compounds (#20, #33, #37, #39, and #48) were tested: 10^−9, 10^−8, 10^−7, 10^−6, 10^−5 and 10^−4 Molar/L. The parent compound, sinomenine, was used as a control. The IC50 was determined by program calcdemo.
(§3) The inhibition of tested compounds on LPS-induced IL-6 production was assessed using human IL-6 Elisa Kit (Lot number 054204D) from Biosource (Carlsbad, Calif., USA). The methods are briefly described according to the instruction in the Kit as below, all reagents and solutions were supplied with the Kit:
(§4) 1) Reagents and solutions were properly prepared for the experiments to determine bioactivity according to the instruction of the Kit.
2) 50 μL of standard solution supplied with the Kit, blood sample with testing compound and blood sample with LPS alone was added per well. Then, 50 μL of Biotin Conjugate was added to each well. The well was covered with the adhesive strip. Then those wells were incubated for 2 hours at room temperature. 3) Each well was aspirated and washed by filling wash buffer (600 μL) using an autowasher. The liquid was completely removed at each step to ensure good performance. This process was repeated three times for a total of four washes. 4) 100 μL of Streptavidin-HRP working solution was added to each well and the well was covered with a new adhesive strip, incubated for 30 min at room temperature. 5) The same aspiration and wash procedures were repeated as described in step 3. 6) 100 μL of Stabilized Chromogen was added to each well and incubated for 30 minutes at room temperature. These wells were protected from light. 7) 100 μL of Stop Solution was added to each well. 8) The optical density of each well was determined within 30 minutes using a microplate reader set to 450 nm.
The blood samples were incubated in the presence of LPS (concentration: 10 ng/ml) for 6 h. The effects of sinomenine (SIN) on LPS-induced IL-6 production were also examined. […]

[2] = test system: LPS-induced IL-8 production; experiment: Inhibition of LPS-induced IL-8 production in human whole blood culture; conditions: LPS 10 ng/ml, 6 h; for IC50: human whole blood culture, IC50 by program calcdemo, read-out: IC50 to inhibit LPS-induced IL-8 production
Description: as §1, §2
as §3, with “IL-8” for “IL-6”, “061302B)” for “054204D)”
as §4
2) Standard solution supplied with the Kit, blood sample with testing compound and blood sample with LPS alone was (50 μL of each item) added into per well. Then, 50 μL of Biotin Conjugate was also added to each well. The well was covered with the adhesive strip. Then those wells were incubated for 1.5 hours at room temperature. 3) Each well was aspirated and washed by filling wash buffer (600 μL) using an autowasher. The liquid was completely removed at each step to ensure good performance. This process was repeated three times for a total of four washes. 4) 100 μL of Streptavidin-HRP working solution was added to each well and the well was covered with a new adhesive strip, incubated for 30 min at room temperature. 5) The same aspiration and wash procedures were repeated as described in step 3. 6) 100 μL of Stabilized Chromogen was added to each well and incubated for 30 minutes at room temperature. These wells were protected from light. 7) 100 μL of Stop Solution was added to each well. 8) The optical density of each well was determined within 30 minutes using a microplate reader set to 450 nm.
The blood samples were incubated in the presence of LPS (concentration: 10 ng/ml) for 6 hours. The effects of sinomenine (SIN) on LPS-induced IL-8 production were also examined. […]

[3] = test system: LPS-induced TNF-α production; experiment: Inhibition of LPS-induced TNF-α production in human whole blood culture; conditions: LPS 10 ng/ml, 6 h; for IC50: IC50 by program calcdemo, read-out: IC50 to inhibit LPS-induced TNF-α production
Description: as §1
The samples from above described protocol were used to determine the release of TNF-α from whole blood culture induced by LPS stimulation and the inhibition by each of 22 tested compounds on the LPS-induced TNF-α production. The TNF-α production was assessed using human TNF-α Enzyme Immunometric Assay Kit (Lot. 235123) from R&D Systems (MN, USA), the detail methods are described as the instruction of the Kit. The concentration of LPS-induced TNF-α production in whole blood culture was 884.2±329.8 pg/ml. These 22 compounds were divided into three groups according to their inhibition potencies on the LPS-induced TNF-α production:
as §2
The blood samples were incubated in the presence of LPS (concentration. 10 ng/ml) for 6 h. Sinomenine (SIN) was used as control. Because all tested compounds including SIN had no effect at concentration of 10^−9 on LPS-induced TNF-α production, the levels of LPS-induced TNF-α production at 10^−9 of tested compounds in the figures were equivalent to the levels of TNF-α in blood samples with LPS alone. Data in panel a of the figures (a1-a6) present the absolute values of TNF-α; data in panel b (b1-b6) present the percentage inhibition of the tested compounds on LPS-induced TNF-α production. All data were Mean±SD (n=6).

[4] = test system: LPS-induced IL-1 production; experiment: Inhibition of LPS-induced IL-1 production in human whole blood culture; conditions: LPS 10 ng/ml, 6 h; for IC50: human whole blood culture, IC50 by program calcdemo, read-out: IC50 to inhibit LPS-induced IL-1 production
Description: as §1, §2
The inhibition of tested compounds on LPS-induced IL-1 production was assessed using human IL-1βEnzyme Immunometric Assay Kit (Lot number 145020) from Cayman Chemical Company (MI, USA). The methods are briefly described according to the instructions supplied with the Kit. All reagents and solutions were supplied with the Kit:
1) Reagents and solutions were properly prepared for the experiments to determine bioactivity according to the instruction.
2) Standard solution provided with the Kit, blood sample with testing compound and blood sample with LPS alone which were prepared as above described, 50 ul for each of these solution or blood samples, was added to each well. Then, 10 μL of DTT, 5 μL of mouse serum and 100 μL of Fab′ were also added into each well together. The well was covered with the adhesive strip. Then those wells were incubated overnight at 4° C. A plate layout was provided to record standards and samples assayed. 3) Each well was washed by filling wash buffer (600 μL) using an autowasher. The liquid was completely removed at each step to ensure good performance. This process was repeated four times for a total of five washes. 4) 200 μL of Ellman's reagent was added to each well and the plate was covered with a piece of dark paper, incubated for 4 hours at room temperature with gentle shaking. 5) The optical density of each well was determined using a microplate reader set to 412 nm.
The blood samples were incubated in the presence of LPS (concentration: 10 ng/ml) for 6 h. The inhibition of Sinomenine (SIN) on LPS-induced IL-1 production was also examined. Because all tested compounds including SIN had no effect at concentration of 10^−9 on LPS-induced IL-1 production, the levels of LPS-induced IL-1 production at 10^−9 of tested compounds in the figures were equivalent to the levels of IL-1 in blood samples with LPS alone. […]

COC1=CC2[C@@H]3Cc4ccc(OC)c(O)c4[C@]2(CCN3C)CC1=O (stereo partly drawn) [Compound 1, sinomenine]
effect on LPS-induced IL-6 production at concentration of 10^−9 ([1]; 10^−9 mol/L): no effect
IC50 [1]: 1700 µM
effect on LPS-induced IL-8 production at concentration of 10^−9 ([2]; 10^−9 mol/L): no effect
IC50 [2]: 74 µM
effect on LPS-induced TNF-α production at concentration of 10^−9 ([3]; 10^−9 mol/L): no effect
effect on LPS-induced IL-1 production at concentration of 10^−9 ([4]; 10^−9 mol/L): no effect

COC1=CC2[C@@H]3Cc4ccc(OC)c(O)c4[C@]2(CCN3C(=O)c2cc(C)cc(C)c2)CC1=O (stereo partly drawn) [Compound 9]
inhibition at 10 µM ([3]; compound 10^−5 mol/L, human whole blood culture, read-out: inhibition of LPS-induced TNF-α production compared to LPS alone): < 30%

COC(=O)c1cccc(C)c1S(=O)(=O)N1CC[C@@]23CC(=O)C(OC)=C[C@@H]2[C@@H]1Cc1ccc(OC)c(O)c13 [Compound 33]
IC50 [1]: 8.7 µM
IC50 [2]: 7300 µM
IC50 ([3]; human whole blood culture): 4.4 µM
IC50 [4]: 100 µM

COC1=C[C@@H]2[C@@H]3Cc4ccc(OC)c(O)c4[C@]2(CCN3C(=O)c2cccnc2)CC1=O [Compound 37]
IC50 [2]: 7600 µM
IC50 ([3]; human whole blood culture): 420 µM
IC50 [4]: 8.8 µM

COC1=C[C@@H]2[C@@H]3Cc4ccc(OC)c(O)c4[C@]2(CCN3C(=O)c2ccc(C)cc2)CC1=O [Compound 39]
IC50 [1]: 5.3 µM
IC50 ([3]; human whole blood culture): 13 µM
IC50 [4]: 4900 µM

COc1ccc2c(c1OC)C13CCN(C)C(C2)C1CC=NN(S(=O)(=O)c1ccc(C)cc1)C(O)C3 (stereo not drawn) [Compound 48]
IC50 [1]: 1000 µM
IC50 [2]: 3800 µM
IC50 ([3]; human whole blood culture): 760 µM
IC50 [4]: 9500 µM
